These results are taken from patent publication US12202835B2, “Substituted aromatic ring-linked dioxinoquinazolines and dioxinoquinolines as kinase inhibitors” (BEIJING SCITECH-MQ PHARMACEUTICALS LIMITED, priority 2018, dated 2025).

Structures are written as SMILES. Where two headings read alike, the source gives them in different places.

The subject of one assay is MHCC97H cells. Description: Assay for inhibiting the proliferation of MHCC97H cells (CCK-8). The assay is classed as cell-based. The protocol: (§1) In particular, the method of the assay of small molecular compounds for inhibiting cell proliferation is as follows: • 1. Cells cultured to a logarithmic growth phase (adherent cells need to be digested with trypsin and neutralized) were taken, pipetted evenly, transferred to a 15 mL centrifuge tube, and centrifuged at 1000 rpm at room temperature for 4 minutes; • 2. The supernatant was discarded; 5 mL of complete medium was added and pipetted evenly; 10 μL of cell suspension was taken out, mixed well with 10 μL of 0.4% trypan blue, and counted under a cell counter; the proportion of living cells was ensured to be above 90%; • 3. 80 μL of cell suspension per well was seeded into a 96-well plate according to the conditions shown in the attached table, and cultured overnight; in the outer 36 wells of the 96-well plate, no cells were added but only sterile water was added; only the inner 60 wells were used for cell assay and control; • 4. 5×compound dilution: the compounds were serially diluted 3-fold to obtain a total of 9 concentrations; 80-fold overall dilution was completed with complete medium, the resulting concentration was 5 times the final drug concentration, and DMSO concentration was 1.25%; • 5. 20 μL of the corresponding compounds with different concentration gradients were added to each well of assay wells of the 96-well plate; 20 μL of complete medium was added to positive and negative control wells and shaken well; and the final concentration of DMSO in each well was 0.25%; • 6. After 72 hours of incubation, 10 μL of CCK-8 reagent was added to each well and further incubated at 37° C. for 1-2 hours; and the OD value was read at 450 nm; • 7. Cell survival rate (%)=[(As−Ab)/(Ac−Ab)]*100% • As: Assay well (medium containing cells, CCK-8, compound), • Ac: Control well (medium containing cells, CCK-8), • Ab: Blank well (CCK-8, medium without cell and compound), • 8. The values were imported into Graphpad Prism 5 software for IC50 calculation.

The subject of a further assay is EBC1 cells. The assay is described as follows: Assay for inhibiting the proliferation of EBC1 cells (CCK-8). The assay is classed as cell-based. The protocol:
as §1

For the molecule `C=CCn1cc(C(=O)Nc2ccc(Oc3ccnc4cc(OC)c5c(c34)OCCO5)c(F)c2)c(=O)n(-c2ccc(F)cc2)c1=O` [Example 100, N-(3-fluoro-4-((5-methoxy-2,3-dihydro-[1,4]dioxino[2,3-f]quinolin-10-yl)oxy)phenyl)-3-(4-fluorophenyl)-1-allyl-2,4-dioxo-1,2,3,4-tetrahydropyrimidine-5-carboxamide], the IC50 in the assay on MHCC97H cells (Homo sapiens) was not above 50 nM; in the assay with EBC1 cells (Homo sapiens, EBC-1), not above 50 nM.

`COc1cc2nccc(Oc3ccc(NC(=O)c4c(OC)ccn(-c5ccc(F)cc5)c4=O)cc3F)c2c2c1OCCO2` [Example 18, N-(3-fluoro-4-((5-methoxy-2,3-dihydro-[1,4]dioxino[2,3-f]quinolin-10-yl)oxy)phenyl)-1-(4-fluorophenyl)-4-methoxy-2-oxo-1,2-dihydropyridine-3-carboxamide]: the IC50 was not above 50 nM in the assay on MHCC97H cells (Homo sapiens) and not above 50 nM in the assay on EBC1 cells (Homo sapiens, EBC-1).

On to `COc1cn(-c2ccc(F)cc2C)nc1C(=O)Nc1ccc(Oc2ccnc3cc(OCCCN4CCOCC4)c4c(c23)OCCO4)c(F)c1` [Example 27, 1-(4-fluoro-2-methylphenyl)-N-(3-fluoro-4-((5-(3-morpholinopropoxy)-2,3-dihydro-[1,4]dioxino[2,3-f]quinolin-10-yl)oxy)phenyl)-4-methoxy-1H-pyrazole-3-carboxamide], for which the IC50 lay in the range of 50 to 200 nM in the assay on MHCC97H cells (Homo sapiens) and 50 to 200 nM in the assay with EBC1 cells (Homo sapiens, EBC-1).

`CCOc1ccn(-c2ccc(F)cc2)c(=O)c1C(=O)Nc1ccc(Oc2ccnc3cc(OCCCN4CCCCC4)c4c(c23)OCCO4)c(F)c1` [Example 33, N-(3-fluoro-4-((5-(3-(piperidin-1-yl)propoxy)-2,3-dihydro-[1,4]dioxino[2,3-f]quinolin-10-yl)oxy)phenyl)-1-(4-fluorophenyl)-4-ethoxy-2-oxo-1,2-dihydropyridine-3-carboxamide]: the concentration for half-maximal inhibition (IC50) is not above 50 nM in the assay on MHCC97H cells (Homo sapiens) and not above 50 nM in the assay with EBC1 cells (Homo sapiens, EBC-1).

As to `CCOc1ccn(-c2ccc(F)cc2)c(=O)c1C(=O)Nc1ccc(Oc2ccnc3cc(OCCOC)c4c(c23)OCCO4)c(F)c1` [Example 36, N-(3-fluoro-4-((5-(2-methoxyethoxy)-2,3-dihydro-[1,4]dioxino[2,3-f]quinolin-10-yl)oxy)phenyl)-1-(4-fluorophenyl)-4-ethoxy-2-oxo-1,2-dihydropyridine-3-carboxamide], the IC50 in the assay with MHCC97H cells (Homo sapiens) was not above 50 nM; with EBC1 cells (Homo sapiens, EBC-1), not above 50 nM.

With `CCOc1ccn(-c2ccc(F)cc2)c(=O)c1C(=O)Nc1ccc(Oc2ccnc3cc(OC)c4c(c23)OCCO4)c(F)c1` [Example 19, N-(3-fluoro-4-((5-methoxy-2,3-dihydro-[1,4]dioxino[2,3-f]quinolin-10-yl)oxy)phenyl)-1-(4-fluorophenyl)-4-ethoxy-2-oxo-1,2-dihydropyridine-3-carboxamide], the IC50 in the assay on MHCC97H cells (Homo sapiens) is not above 50 nM; in the assay on EBC1 cells (Homo sapiens, EBC-1), not above 50 nM.

On to `COc1cc2nccc(Oc3ccc(NC(=O)c4cn(C)c(=O)n(-c5ccc(F)cc5)c4=O)cc3F)c2c2c1OCCO2` [Example 13, N-(3-fluoro-4-((5-methoxy-2,3-dihydro-[1,4]dioxino[2,3-f]quinolin-10-yl)oxy)phenyl)-3-(4-fluorophenyl)-1-methyl-2,4-dioxo-1,2,3,4-tetrahydropyrimidine-5-carboxamide], for which the IC50 in the assay on MHCC97H cells (Homo sapiens) is 50 to 200 nM; in the assay on EBC1 cells (Homo sapiens, EBC-1), 50 to 200 nM.

Turning to `CCOc1ccn(-c2ccc(F)cc2)c(=O)c1C(=O)Nc1ccc(Oc2ccnc3cc(OCCCN4CCOCC4)c4c(c23)OCCO4)c(F)c1` [Example 22, N-(3-fluoro-4-((5-(3-morpholinopropoxy)-2,3-dihydro-[1,4]dioxino[2,3-f]quinolin-10-yl)oxy)phenyl)-1-(4-fluorophenyl)-4-ethoxy-2-oxo-1,2-dihydropyridine-3-carboxamide], the IC50 is not above 50 nM in the assay on MHCC97H cells (Homo sapiens) and not above 50 nM in the assay on EBC1 cells (Homo sapiens, EBC-1).

With `CCOc1ccn(-c2ccc(F)cc2)c(=O)c1C(=O)Nc1ccc(Oc2ncnc3cc(OCCCN4CCOCC4)c4c(c23)OCCO4)c(F)c1` [Example 6, N-(3-fluoro-4-((5-(3-morpholinopropoxy)-2,3-dihydro-[1,4]dioxino[2,3-f]quinazolin-10-yl)oxy)phenyl)-1-(4-fluorophenyl)-4-ethoxy-2-oxo-1,2-dihydropyridine-3-carboxamide], the IC50 in the assay on MHCC97H cells (Homo sapiens) is 50 to 200 nM; in the assay on EBC1 cells (Homo sapiens, EBC-1), not above 50 nM.

Consider `CCOc1ccn(-c2cccc(F)c2)c(=O)c1C(=O)Nc1ccc(Oc2ccnc3cc(OC)c4c(c23)OCCO4)c(F)c1` [Example 114, N-(3-fluoro-4-((5-methoxy-2,3-dihydro-[1,4]dioxino[2,3-f]quinolin-10-yl)oxy)phenyl)-2-oxo-4-ethoxy-1-(3-fluorophenyl)-1,2-dihydropyridin-3-carboxamide], for which the IC50 lay within 50 to 200 nM with MHCC97H cells (Homo sapiens) and 50 to 200 nM in the assay on EBC1 cells (Homo sapiens, EBC-1).

Consider `COc1cc2nccc(Oc3ccc(NC(=O)c4cccn(-c5ccc(F)cc5)c4=O)cc3F)c2c2c1OCCO2` [Example 17, N-(3-fluoro-4-((5-methoxy-2,3-dihydro-[1,4]dioxino[2,3-f]quinolin-10-yl)oxy)phenyl)-1-(4-fluorophenyl)-2-oxo-1,2-dihydropyridine-3-carboxamide], for which the 50% inhibitory concentration (IC50) is not above 50 nM with MHCC97H cells (Homo sapiens) and not above 50 nM in the assay with EBC1 cells (Homo sapiens, EBC-1).

Consider `COc1ccn(-c2ccc(F)cc2)c(=O)c1C(=O)Nc1ccc(Oc2ncnc3cc(OCCCN4CCOCC4)c4c(c23)OCCO4)c(F)c1` [Example 5, N-(3-fluoro-4-((5-(3-morpholinopropoxy)-2,3-dihydro-[1,4]dioxino[2,3-f]quinazolin-10-yl)oxy)phenyl)-1-(4-fluorophenyl)-4-methoxy-2-oxo-1,2-dihydropyridine-3-carboxamide], for which the IC50 is 50 to 200 nM in the assay with MHCC97H cells (Homo sapiens) and not above 50 nM in the assay on EBC1 cells (Homo sapiens, EBC-1).

In the case of `CCOc1ccn(-c2ccc(Cl)cc2)c(=O)c1C(=O)Nc1ccc(Oc2ccnc3cc(OC)c4c(c23)OCCO4)c(F)c1` [Example 113, N-(3-fluoro-4-((5-methoxy-2,3-dihydro-[1,4]dioxino[2,3-f]quinolin-10-yl)oxy)phenyl)-2-oxo-4-ethoxy-1-(4-chlorophenyl)-1,2-dihydropyridin-3-carboxamide], the IC50 was in the range of 50 to 200 nM in the assay with MHCC97H cells (Homo sapiens) and 50 to 200 nM with EBC1 cells (Homo sapiens, EBC-1).

As for `CCOc1ccn(-c2ccc(F)cc2)c(=O)c1C(=O)Nc1cc(F)c(Oc2ccnc3cc(OC)c4c(c23)OCCO4)cc1Cl` [Example 115, N-(2-chloro-5-fluoro-4-((5-methoxy-2,3-dihydro-[1,4]dioxino[2,3-f]quinolin-10-yl)oxy)phenyl)-4-ethoxy-2-oxo-1-(4-fluorophenyl)-1,2-dihydropyridin-3-carboxamide], the IC50 with MHCC97H cells (Homo sapiens) was not above 50 nM; in the assay on EBC1 cells (Homo sapiens, EBC-1) it was not above 50 nM.

Turning to `COCCOc1cc2nccc(Oc3ccc(NC(=O)c4c(OC)ccn(-c5ccc(F)cc5)c4=O)cc3F)c2c2c1OCCO2` [Example 35, N-(3-fluoro-4-((5-(2-methoxyethoxy)-2,3-dihydro-[1,4]dioxino[2,3-f]quinolin-10-yl)oxy)phenyl)-1-(4-fluorophenyl)-4-methoxy-2-oxo-1,2-dihydropyridine-3-carboxamide], the IC50 is not above 50 nM with MHCC97H cells (Homo sapiens) and not above 50 nM in the assay on EBC1 cells (Homo sapiens, EBC-1).

For `O=C(Nc1ccc(Oc2ccnc3cc(OCCCN4CCCCC4)c4c(c23)OCCO4)c(F)c1)c1cccn(-c2ccc(F)cc2)c1=O` [Example 31, N-(3-fluoro-4-((5-(3-(piperidin-1-yl)propoxy)-2,3-dihydro-[1,4]dioxino[2,3-f]quinolin-10-yl)oxy)phenyl)-1-(4-fluorophenyl)-2-oxo-1,2-dihydropyridine-3-carboxamide], the IC50 in the assay on MHCC97H cells and in the assay on EBC1 cells was not above 50 nM throughout.

`CCOc1ccn(-c2ccc(F)cc2)c(=O)c1C(=O)Nc1ccc(Oc2ccnc3cc(OCC4(N)CC4)c4c(c23)OCCO4)c(F)c1` [Example 105, N-(4-((5-((1-aminocyclopropyl)methoxy)-2,3-dihydro-[1,4]dioxino[2,3-f]quinolin-10-yl)oxy)-3-fluorophenyl)-4-ethoxy-1-(4-fluorophenyl)-2-oxo-1,2-dihydropyridine-3-carboxamide]: the IC50 in the assay on MHCC97H cells (Homo sapiens) is 50 to 200 nM; in the assay on EBC1 cells (Homo sapiens, EBC-1), not above 50 nM.

Regarding `COc1cc2nccc(Oc3ccc(NC(=O)c4cn(CCF)c(=O)n(-c5ccc(F)cc5)c4=O)cc3F)c2c2c1OCCO2` [Example 101, N-(3-fluoro-4-((5-methoxy-2,3-dihydro-[1,4]dioxino[2,3-f]quinolin-10-yl)oxy)phenyl)-3-(4-fluorophenyl)-1-(2-fluoroethyl)-2,4-dioxo-1,2,3,4-tetrahydropyrimidine-5-carboxamide], the IC50 in the assay with MHCC97H cells (Homo sapiens) is not above 50 nM; in the assay on EBC1 cells (Homo sapiens, EBC-1), not above 50 nM.

As to `CC(C)n1cc(C(=O)Nc2ccc(Oc3ccnc4cc(OCC5(N)CC5)c5c(c34)OCCO5)c(F)c2)c(=O)n(-c2ccc(F)cc2)c1=O` [Example 106, N-(3-fluoro-4-((5-((1-aminocyclopropyl)methoxy)-2,3-dihydro-[1,4]dioxino[2,3-f]quinolin-1 0-yl)oxy)phenyl)-3-(4-fluorophenyl)-1-isopropyl-2,4-dioxo-1,2,3,4-tetrahydropyrimidine-5-carboxamide], the IC50 in the assay with MHCC97H cells (Homo sapiens) was 50 to 200 nM; with EBC1 cells (Homo sapiens, EBC-1) it was not above 50 nM.
